# According to patent US20150315153A1, “NOVEL SULFONIC ACID DERIVATIVE COMPOUND, PHOTOACID GENERATOR, CATIONIC POLYMERIZATION INITIATOR, RESIST COMPOSITION, AND CATIONICALLY POLYMERIZABLE COMPOSITION” (ADEKA CORPORATION, priority 2012, published 2015):
# Tests used:
# [1] = UV absorption spectrum in acetonitrile; type: physicochemical; conditions: for Maximum absorption wavelength: absorption in a range of 300 nm to 400 nm; for ε at maximum absorption wavelength (molar extinction coefficient): second line of the cell
# Description: (§1) Compound Nos. 4, 5, 7, 10, 20, 6, 35, 38 and 40 and Comparative Compound 1 represented by the Formula below were each dissolved in acetonitrile, and their absorption spectra were measured using a […] U-3010 to determine the values of ?max and (molar extinction coefficient) for absorption in a range of 300 nm to 400 nm as well as the value of ε at 365 nm. […] As for the solubility, the concentration of each compound was increased by 1%-by-mass increments and the concentration at which no compound was left undissolved was determined and, in the results shown in Table 4, the solubility is indicated in terms of this concentration.
# [2] = Solubility to propylene glycol monomethyl ether acetate at 25° C.; type: physicochemical; conditions: for Solubility: concentration at which no compound was left undissolved; for solubility, ranking among compounds grouped by sulfonate moiety: among Compound Nos. 4, 5, 7 and 10, among Compound Nos. 6, 38 and 40
# Description: as §1
# [3] = Weight loss starting point (thermal analysis); type: physicochemical
# [4] = propylene glycol monomethyl ether acetate, 25° C.
ε at 365 nm [1],Maximum absorption wavelength [1] [nm],ε at maximum absorption wavelength (molar extinction coefficient) [1],"Solubility [2, 4] [% by mass]",Weight loss starting point [3] [°C],melting point [°C],"solubility, ranking among compounds grouped by sulfonate moiety [2]","solubility (in words) [2, 4]","solubility, comparison between Compound Nos. 4 and 20 (different Xs) [2, 4]",Structure (SMILES)
9.95 × 10^3,344,1.64 × 10^4,5,253,145,–,–,–,CCc1ccc2c3c(cccc13)C(=O)N(OS(=O)(=O)C(F)(F)F)C2=O [Compound No. 20]
1.16 × 10^4,346,1.65 × 10^4,20,250,110,highest solubility,high solubility,higher solubility,CCCCc1ccc2c3c(cccc13)C(=O)N(OS(=O)(=O)C(F)(F)F)C2=O [Compound No. 4]
1.05 × 10^4,344.5,1.68 × 10^4,1.9,301.8,95.5,–,–,–,CCCCCCCCCCCCCCc1ccc2c3c(cccc13)C(=O)N(OS(=O)(=O)c1ccc(C)cc1)C2=O [Compound No. 40]
1.24 × 10^4,345,1.76 × 10^4,1.6,304.9,129.6,–,–,–,CCCCC(CC)Cc1ccc2c3c(cccc13)C(=O)N(OS(=O)(=O)c1ccc(C)cc1)C2=O (centres unmarked) [Compound No. 38]
1.17 × 10^4,346,1.68 × 10^4,5,279,134,–,–,–,CCCCc1ccc2c3c(cccc13)C(=O)N(OS(=O)(=O)CC13CCC(CC1=O)C3(C)C)C2=O (centres unmarked) [Compound No. 10]
1.02 × 10^4,343.5,1.67 × 10^4,2.3,314.8,145.1,highest solubility,–,–,CCCCc1ccc2c3c(cccc13)C(=O)N(OS(=O)(=O)c1ccc(C)cc1)C2=O [Compound No. 6]
1.06 × 10^4,344,1.65 × 10^4,5,267,131,–,–,–,CCCCc1ccc2c3c(cccc13)C(=O)N(OS(=O)(=O)c1c(C(C)C)cc(C(C)C)cc1C(C)C)C2=O [Compound No. 7]
1.11 × 10^4,345.0,1.68 × 10^4,2.0,302,192,–,–,–,CCCCc1ccc2c3c(cccc13)C(=O)N(OS(=O)(=O)c1ccc(C(F)(F)F)cc1)C2=O [Compound No. 35]
6.48 × 10^2,335,1.34 × 10^4,2,–,–,–,–,–,"CC1(C)C2CCC1(CS(=O)(=O)ON1C(=O)c3cccc4cccc(c34)C1=O)C(=O)C2 (centres unmarked) [Comparative Compound 1, reference compound]"
